The test has as its target T1, human A3 receptor (Homo sapiens, UniProt P0DMS8).
T1 construct: expressed in transfected cells
T1 sequence (P0DMS8 1-318): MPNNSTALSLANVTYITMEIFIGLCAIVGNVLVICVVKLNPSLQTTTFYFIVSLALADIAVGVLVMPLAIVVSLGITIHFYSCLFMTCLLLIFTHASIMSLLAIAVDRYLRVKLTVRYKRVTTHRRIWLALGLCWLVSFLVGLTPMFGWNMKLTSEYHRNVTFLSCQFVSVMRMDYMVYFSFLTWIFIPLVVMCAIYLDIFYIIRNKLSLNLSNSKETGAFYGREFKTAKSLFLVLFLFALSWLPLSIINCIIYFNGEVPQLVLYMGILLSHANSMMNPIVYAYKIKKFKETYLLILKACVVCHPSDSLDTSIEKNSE
Nature of the test: Radioligand displacement binding, [125I]AB-MECA, mammalian membranes. The conditions noted are these: [125I]AB-MECA 0.75 nM; 10 ug mammalian membranes; 60 minutes room temperature; read-out: IC50 hA3R.

Turning to `O=c1[nH]c(=O)c2nc3ccccc3nc2[nH]1` [Alloxozine], the IC50 is 8.22 µM.
